Experimental data from patent publication US20080039442A1, “Compounds With Kv4 Ion Channel Activity” (Devgen NV, priority 2004, published 2008).
Where two headings read alike, the source gives them in different places.

What was measured:
[1] = target: T1, human Kv4.3/KChIP2.2 potassium channel (Homo sapiens, UniProt Q9UK17); assay: Whole cell patch clamp, CHO-K1 cells stably expressing Kv4.3/KChIP2.2; type: cell-based; settings: for IC50: Table 12, read-out: Kv4.3 charge IC50; for remaining activity at 1 µM: CHO-K1
T1 construct: expressed in transfected cells
T1 sequence (Q9UK17 1-655): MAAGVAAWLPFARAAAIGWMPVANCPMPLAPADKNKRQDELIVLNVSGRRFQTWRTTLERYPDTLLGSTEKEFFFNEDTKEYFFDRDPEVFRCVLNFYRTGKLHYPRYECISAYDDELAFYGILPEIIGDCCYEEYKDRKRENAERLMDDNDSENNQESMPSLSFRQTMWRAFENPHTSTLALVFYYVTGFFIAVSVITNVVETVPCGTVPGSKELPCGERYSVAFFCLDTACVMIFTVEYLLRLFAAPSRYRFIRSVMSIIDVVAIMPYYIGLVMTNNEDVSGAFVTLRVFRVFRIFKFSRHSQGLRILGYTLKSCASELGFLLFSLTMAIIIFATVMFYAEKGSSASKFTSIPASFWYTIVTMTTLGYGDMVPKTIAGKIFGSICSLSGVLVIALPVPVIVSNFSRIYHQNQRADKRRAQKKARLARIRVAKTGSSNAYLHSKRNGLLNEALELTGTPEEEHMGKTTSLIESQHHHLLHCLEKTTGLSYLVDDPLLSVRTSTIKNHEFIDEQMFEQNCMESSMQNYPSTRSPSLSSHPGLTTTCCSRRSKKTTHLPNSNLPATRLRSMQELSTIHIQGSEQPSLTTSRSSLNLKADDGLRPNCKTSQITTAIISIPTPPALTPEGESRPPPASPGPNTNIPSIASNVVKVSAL
T1 sequence (Q9NS61 1-270 partner): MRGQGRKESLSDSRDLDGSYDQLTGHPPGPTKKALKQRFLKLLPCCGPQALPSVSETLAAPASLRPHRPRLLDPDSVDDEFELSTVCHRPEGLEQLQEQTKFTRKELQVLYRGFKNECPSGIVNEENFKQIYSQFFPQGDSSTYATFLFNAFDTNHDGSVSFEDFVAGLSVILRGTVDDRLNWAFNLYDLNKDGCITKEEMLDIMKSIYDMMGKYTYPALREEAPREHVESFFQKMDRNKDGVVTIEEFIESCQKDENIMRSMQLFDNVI
Description: For this experiment, a recombinant CHO-K1 cell line stably expressing the human Kv4.3/KChIP2.2 potassium channel was used.
Protocol B: The cells were cultured in 94 mm culture dishes under the culturing conditions of 5% CO2 and 37° C. Subculturing was performed every 3-4 days, by removing the media and then rising the dish with 8 ml PBS (phosphate buffered saline). The PBS was removed and 1 ml Trypsin/EDTA was added to the cells. The cells were incubated about 2 min at 37° C. or 5 min at room temperature and then the dish was rapped to detach and singularize the cells. To inactivate the enzyme 9 ml of media was added and the solution was pipetted up and down to break up clumps of cells. Part of the suspension was then transferred to a new 94 mm dish and media was added to a final volume of 8 ml. If necessary the cells could be seeded onto 35 mm or 94 mm dishes (2 ml media per 35 mm dish and 8 ml media per 94 mm dish). The media was changed every 2-3 days. The media used was the solution for culturing the cells described above. For stable cells antibiotic G418, Hygromycin, Blasticidin, or Zeocin were not added.
The preparation of cells for electrophysiological experiments was performed as described in protocol C hereunder.
Protocol C: The transfected cells and stable cells were transferred from 35 mm cell culture dishes onto coverslips using cold PBS: The media was removed and 0.3 ml of PBS (4-10° C.) was added. The cells were incubated 5 min at room temperature. The dish was rapped to detach and singularize the cells and 1.7 ml media was added and the solution pipetted up and down to break up clumps of cells. Part of the cell suspension was then transferred to a 35 mm dish with coverslips and media. The transfected cells and stable cells could also be transferred from 35 mm cell culture dishes onto coverslips using trypsin: The media was removed and the dish rinsed with 3 ml PBS. The PBS was removed and 0.3 ml 1× Trypsin/EDTA was added and the cells incubated 5 min at room temperature. The dish was rapped to detach and singularize the cells and 1.7 ml media was added and the solution pipetted up and down to break up clumps of cells. Part of the cell suspension was then transferred to a 35 mm dish with coverslips and media.
10 mM stock solutions of the compounds were prepared in DMSO. Solutions of the compounds were prepared by dilution of stock solution in bath solution. If the required stock solution volume was theoretically below 1 μl, bath solutions with higher compound concentration were used for dilution. The maximal DMSO concentration during experiments was 0.1% (v/v).
For patch clamp experiments, the following solutions in demineralized water as vehicle were used (concentration in mM).
Bath (external) solution: 4 KCl, 135 NaCl, 2 CaCl2, 1 MgCl2, 10 D(+)-Glucose, 5 HEPES, pH 7.4 (NaOH).
Pipette (internal) solution: 130 KCl, 1 MgCl2, 10 EGTA, 5 Na2ATP, 5 HEPES, pH 7.4 (KOH).
Experiments were performed using a patch clamp set-up.
Measurements were performed at room temperature (20-25° C.). […] Each cell acted as its own control. The effect of compounds on Kv4.3/KChIP2.2 mediated currents was investigated at one concentration ([…]) with two replicates each (c=1, n=2).
The test protocols are illustrated in FIG. 1 and Table 4. […] Each test protocol consisted of 4 segments.
Subsequently, 14 test pulses (series 1; FIG. 1b and Table 4b) were applied at 0.1 Hz under constant superfusion with bath solution. The protocol was initiated by a voltage jump to −100 mV (400 ms) to achieve full inactivation. Then the Kv4.3/KChIP2.2 channels were transferred to the open state by depolarization to +40 mV for 300 milliseconds (activation). Only cells generating current amplitudes between 1 nA and 50 nA were used for the experimental procedure. No or negligible rundown was observed.
Then, 36 test pulses (series 2) were applied at 0.1 Hz under constant superfusion with the compound dissolved in bath solution. […]

[2] = read-out: Kv4.3 charge in %: remaining current measured after application of the compound and relative to the blank
[3] = read-out: Kv4.3 peak in %: remaining peak height measured after application of the compound and relative to the blank

Row | Structure (SMILES) | melting point [°C] | also measured
1 | Cc1ccc2[nH]cc(CCNC(=O)c3cc4cc(Cl)ccc4o3)c2c1 [Compound 3, 5-chloro-benzofuran-2-carboxylic acid [2-(5-methyl-1H-indole-3-yl)-ethyl]-amide] |  | IC50 [1]: 1330 nM
2 | O=C(c1ccc(Cl)cc1)C1CCN(C(=O)c2cc3cc(Cl)ccc3o2)CC1 [Compound 7, (5-chloro-benzofuran-2-yl)-[4-(4-chloro-benzoyl)-piperidin-1-yl]-methanone] |  | IC50 [1]: 890 nM
3 | COc1ccc(CNC(=O)c2cc3ccccc3o2)c(OC)c1 [Compound 12, benzofuran-2-carboxylic acid 2,4-dimethoxy-benzylamide] |  | remaining activity at 1 µM [1, 2]: 89%; remaining activity at 1 µM [1, 3]: 97%
4 | COc1ccc(CC(=O)c2cc3ccccc3o2)c(OC)c1 [Compound 23, 1-benzofuran-2-yl-2-(2,4-dimethoxy-phenyl)-ethanone] |  | remaining activity at 1 µM [1, 2]: 83%; remaining activity at 1 µM [1, 3]: 99%
5 | O=C(N[C@H](C(=O)O)c1ccccc1)c1cc2cc(Cl)ccc2o1 [Compound 41, (S)-[(5-chloro-benzofuran-2-carbonyl)-amino]-phenyl-acetic acid] | 211.2 to 215.6 | 
6 | O=C(NCc1ccccc1)c1cc2cc(Cl)ccc2o1 [Compound 47, 5-chloro-benzofuran-2-carboxylic benzylamide] |  | remaining activity at 1 µM [1, 2]: 87%; remaining activity at 1 µM [1, 3]: 95%
7 | O=C(NCc1ccc(F)c(C(F)(F)F)c1)c1cc2ccccc2o1 [Compound 50, benzofuran-2-carboxylic acid 4-fluoro-3-trifluoromethyl-benzylamide] | 89.5 to 91.6 | 
8 | CC(NC(=O)c1cc2cc(Cl)ccc2o1)c1ccccc1 (centres unmarked) [Compound 57, 5-chloro-benzofuran-2-carboxylic acid (1-phenyl-ethyl)-amide] | 136.3 to 138.2 | 
9 | CC[C@@H](NC(=O)c1cc2cc(Cl)ccc2o1)c1ccccc1 [Compound 58, 5-chloro-benzofuran-2-carboxylic acid ((R)-1-phenyl-propyl)-amide] | 118.5 to 120.7 | 
10 | CC[C@H](NC(=O)c1cc2cc(Cl)ccc2o1)c1ccccc1 [Compound 59, 5-chloro-benzofuran-2-carboxylic acid ((S)-1-phenyl-propyl)-amide] | 110.1 to 111.3 | 
11 | CSc1ccccc1CNC(=O)c1cc2cc(Cl)ccc2o1 [Compound 60, 5-chloro-benzofuran-2-carboxylic acid 2-methylsulfanyl-benzylamide] | 174.7 to 177.2 | 
12 | CSc1ccc(CNC(=O)c2cc3cc(Cl)ccc3o2)cc1 [Compound 61, 5-chloro-benzofuran-2-carboxylic acid 4-methylsulfanyl-benzylamide] | 159 to 161 | 
13 | O=C(NCc1ccc(Oc2ccccc2)cc1)c1cc2cc(Cl)ccc2o1 [Compound 68, 5-chloro-benzofuran-2-carboxylic acid 4-phenoxy-benzylamide] | 93.6 to 95.5 | 
14 | Cc1cccc(CNC(=O)c2cc3cc(Cl)ccc3o2)c1 [Compound 70, 5-chloro-benzofuran-2-carboxylic acid 3-methyl-benzylamide] | 148.4 to 149.4 | 
15 | O=C(NCc1ccccc1-c1ccccc1)c1cc2cc(Cl)ccc2o1 [Compound 72, 5-chloro-benzofuran-2-carboxylic acid (biphenyl-2-ylmethyl)-amide] | 129.8 to 132.8 | 
16 | O=C(NCc1ccc(Br)cc1)c1cc2cc(Cl)ccc2o1 [Compound 77, 5-chloro-benzofuran-2-carboxylic acid 4-bromo-benzylamide] | 192.3 to 193.8 | 
17 | N#Cc1ccc(CNC(=O)c2cc3cc(Cl)ccc3o2)cc1 [Compound 80, 5-chloro-benzofuran-2-carboxylic acid 4-cyano-benzylamide] | 226.6 to 230.4 | 
18 | O=C(NCc1ccncc1)c1cc2cc(Cl)ccc2o1 [Compound 81, 5-chloro-benzofuran-2-carboxylic acid (pyridin-4-ylmethyl)-amide] | 163.1 to 166.2 | 
19 | Cc1ccc(C2CCN(C(=O)c3cc4cc(Cl)ccc4o3)CC2)cc1 [Compound 98, (5-chloro-benzofuran-2-yl)-(4-p-tolyl-piperidin-1-yl)-methanone] |  | remaining activity at 1 µM [1, 2]: 80%; remaining activity at 1 µM [1, 3]: 97%
20 | Cc1c(C(=O)N2CCCCC2Cc2ccccc2)oc2ccc(Cl)cc12 (centres unmarked) [Compound 106, (2-benzyl-piperidin-1-yl)-(5-chloro-3-methyl-benzofuran-2-yl)-methanone] |  | remaining activity at 1 µM [1, 2]: 59%; remaining activity at 1 µM [1, 3]: 87%

The next lines start with results.

Row | melting point [°C] | Structure (SMILES) | also measured
21 | 118.8 to 120.4 | COc1ccc(CNC(=O)c2cn(Cc3ccccc3)c3ccccc23)c(OC)c1 | 
22 | 154 to 155.6 | COC(=O)c1cccc(CNC(=O)c2cc3cc(Cl)ccc3o2)c1 [Compound 65, 5-{[(5-chloro-benofuran-2-carbonyl)-amino]-methyl}-benzoic acid methyl ester] | 
23 | 105.1 to 109.4 | CN(C)C(=O)c1cccc(CNC(=O)c2cc3cc(Cl)ccc3o2)c1 [Compound 66, 5-chloro-benzofuran-2-carboxylic acid 3-dimethylcarbamoyl-benzylamide] | 
24 | 163.9 to 166.6 | CN(C)S(=O)(=O)c1ccc(CNC(=O)c2cc3cc(Cl)ccc3o2)cc1 [Compound 67, 5-chloro-benzofuran-2-carboxylic acid 4-dimethylsulfamoyl-benzylamide] | 
25 | 141.8 to 143 | Cc1ccccc1CNC(=O)c1cc2cc(Cl)ccc2o1 [Compound 69, 5-chloro-benzofuran-2-carboxylic acid 2-methyl-benzylamide] | 
26 | 130.4 to 131 | O=C(NCc1cccc(-c2ccccc2)c1)c1cc2cc(Cl)ccc2o1 [Compound 73, 5-chloro-benzofuran-2-carboxylic acid (biphenyl-3-ylmethyl)-amide] | 
27 | 187.6 to 189.1 | CS(=O)(=O)c1ccc(CNC(=O)c2cc3cc(Cl)ccc3o2)cc1 [Compound 79, 5-chloro-benzofuran-2-carboxylic acid 4-methanesulfonyl-benzylamide] | 
